Measured values from PubChem BioAssay (NCI).
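Step 1: Grow cells in 96-well plates. Step 2: Expose to compound for 48 hours at 5 concentrations. Step 3: Interpolate endpoints linearly; if unreached, use highest concentration. GI50 is the concentration that inhibits growth by half. Definition used: TGI = concentration required for complete inhibition of growth.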

Assays:
Experiment in all cases: growth of human tumour cells (NCI), 48 h
A549 NSCLC = tested on: A549 NSCLC
COLO 205 colon = tested on: COLO 205 colon
EKVX NSCLC = tested on: EKVX NSCLC
HOP-62 NSCLC = tested on: HOP-62 NSCLC
MALME-3M melanoma = tested on: MALME-3M melanoma
OVCAR-3 ovarian = tested on: OVCAR-3 ovarian
OVCAR-4 ovarian = tested on: OVCAR-4 ovarian
OVCAR-5 ovarian = tested on: OVCAR-5 ovarian
SF-539 CNS = tested on: SF-539 CNS
SK-MEL-28 melanoma = tested on: SK-MEL-28 melanoma

SMILES | TGI (A549 NSCLC) [µM] | TGI (COLO 205 colon) [µM] | TGI (EKVX NSCLC) [µM] | TGI (HOP-62 NSCLC) [µM] | TGI (MALME-3M melanoma) [µM] | TGI (OVCAR-3 ovarian) [µM] | TGI (OVCAR-4 ovarian) [µM] | TGI (OVCAR-5 ovarian) [µM] | TGI (SF-539 CNS) [µM] | TGI (SK-MEL-28 melanoma) [µM] | GI50 (A549 NSCLC) [µM] | GI50 (COLO 205 colon) [µM] | GI50 (EKVX NSCLC) [µM] | GI50 (HOP-62 NSCLC) [µM] | GI50 (MALME-3M melanoma) [µM] | GI50 (OVCAR-3 ovarian) [µM] | GI50 (OVCAR-4 ovarian) [µM] | GI50 (OVCAR-5 ovarian) [µM] | GI50 (SF-539 CNS) [µM] | GI50 (SK-MEL-28 melanoma) [µM]
O=C1CCC2CCOc3ccc(O)c1c32 (stereo unspecified) | > 100 | > 100 | > 100 | > 100 | > 100 | > 100 | > 100 | > 100 | > 100 | > 100 |  |  |  |  |  |  |  |  |  | 
CN1c2ccccc2C(C)(C)C12CC(c1ccc(Cl)c(S(=O)(=O)N3CCCC3)c1)=NO2 (stereo unspecified) | > 100 | > 100 | > 100 | > 100 | > 100 | > 100 | > 100 | > 100 | > 100 | > 100 | > 100 | > 100 | > 100 | 83.7 | > 100 | > 100 | > 100 | > 100 | > 100 | > 100
COc1cc2c3c(n(C)c(=O)c2cc1OC)-c1cc2c(cc1/C3=C\[C@@H](N)CCCCN)OCO2 |  | > 86.3 | 75.9 | 26.9 | 13.3 | 58.9 | 99 | > 100 | 12.5 | > 100 | 0.381 | 2.8 | 4.56 | 3.14 | 1.84 | 3.83 | 1.26 | 5.14 | 0.335 | 1.39
CN(C)CCCC(=O)Nc1ccc(Cn2nnc3c2C(=O)c2nnn(Cc4ccc(NC(=O)CCCN(C)C)cc4)c2C3=O)cc1 | 39.2 | 3.52 |  | 32.8 | 2.94 | 6.02 | 2.64 | 51.4 | 5.6 | 20.3 | 16.8 | 1.79 |  | 17.2 | 1.39 | 2.38 | 1.34 | 19 | 2.34 | 4.55
N#Cc1nc(Nc2ccc([N+](=O)[O-])cc2)sc1N | > 100 | > 100 | > 100 | 75.8 | > 91.4 | > 69.4 | > 100 | > 100 | 18.7 | > 74.3 |  |  |  |  |  |  |  |  |  | 
Cc1ccc([Se][Se]c2ccc(C)cc2)cc1 | > 100 | > 100 |  | > 100 | > 100 | > 100 | 36.9 |  | > 100 | 81.3 |  |  |  |  |  |  |  |  |  | 
COc1cccc2c(Nc3ccc(C(=O)NCCN(C)C)cc3)cc(-c3ccccc3)nc12 | 33.1 | 26.5 | 81.4 | 29.3 | 40.2 | 54.1 | > 100 | 50.6 | 37.1 | > 100 | 16 | 11.2 | 27 | 13.8 | 20 | 25.6 | 33 | 23.7 | 19.1 | 37.1
C=CCNc1cccc2c1C(=O)c1ccccc1C2(O)CC=C (stereo unspecified) | 69 | 36.1 | > 100 | 61.2 |  |  | > 100 | 67.9 | 38.4 | 93.3 | 23.7 | 16.2 | 31.8 | 24.2 |  |  | 26.2 | 31.5 | 19.5 | 27
C1C[OH+]CC[OH+]CC[OH+]CC[OH+]CC[OH+]CC[OH+]1.[Cl-].[Ta+5] | > 100 | > 100 |  | > 100 | > 100 | > 100 | > 100 |  | > 100 | > 100 | > 100 | > 100 |  | > 100 | > 100 | > 100 | > 100 |  | > 100 | > 100
COc1ccc(-c2[nH]ncc2-c2cc(OC)c(OC)c(OC)c2)cc1 | > 38 | < 0.01 |  | > 100 |  |  | 29.6 | > 47.7 | < 0.0128 | 33.6 | < 0.01 | < 0.01 |  | < 0.01 |  | < 0.01 | < 0.0397 | < 0.018 | < 0.01 | < 0.0185
O=C1CCC(=O)C12CCc1cccc(O)c12 | > 100 | > 100 | > 100 | > 100 | > 100 | > 100 | > 100 |  |  | > 100 |  |  |  |  |  |  |  |  |  | 
O=C1CC(c2c[nH]c3ccccc23)C(=O)N1c1ccccc1 (stereo unspecified) | > 100 |  | > 100 | > 100 | > 100 | > 100 | > 100 | > 100 | > 100 | > 100 |  |  |  |  |  |  |  |  |  | 
C=CCNC(=S)OCCCCCCCCCC | 76.2 |  | 39.6 | 36.3 | 33.8 |  | 30.5 | 21.8 | 34 | 44.9 |  |  |  |  |  |  |  |  |  | 
COP1(=S)OCC2CCC[C@@H]2O1 (stereo partly specified) | > 100 | > 100 |  |  | > 100 | > 100 | > 100 | > 100 | > 100 | > 100 |  |  |  |  |  |  |  |  |  | 
CC(=O)OC1=C2C(CC3C4CC=C5CC(OC(C)=O)CCC5(C)C4CCC23C)C2C(=O)N(Cc3ccccc3)C(=O)C2C1 (stereo unspecified) | 34 | 25 |  | > 100 | > 100 | 12 | 9.27 | > 100 | 14.4 | > 100 | 4.33 | 8.12 |  | 35.9 | 10.5 | 3.31 | 2.33 | 50.3 | 3.48 | 28.9
Cc1nc2ccc(NCCN(C)C)c3c(=O)c4cc(O)ccc4n1c23 | 3.39 | 2.3 |  | 11.1 | 9.06 | 9.94 | 3.38 | 6.05 | 12.2 | 11.7 |  |  |  |  |  |  |  |  |  | 
CC(C)CC(=O)CC(O)C(Cl)(Cl)Cl (stereo unspecified) | > 100 | > 100 | > 100 | > 100 | > 100 | > 100 | > 100 | > 100 |  | > 100 |  |  |  |  |  |  |  |  |  | 
